# According to patent US20200247859A1, “CONSTRUCT FOR EXPRESSING G PROTEIN-COUPLED RECEPTOR OR SUBUNIT THEREOF, AND USE OF SAID CONSTRUCT” (JAPAN TOBACCO INC., priority 2017, published 2020):
# Where two headings read alike, the source gives them in different places.
# How the values were obtained:
# [1] = target: T2R38 subtype (bitter taste receptor) (Homo sapiens, UniProt P59533, A49P/I296V); conditions: Gα-T2R38 stable expression cell line, FIG. 18
# Description: A Gα-T2R38 expression vector comprising a gene encoding a T2R38 subtype (bitter taste receptor) instead of the gene encoding T2R16 of Gα-T2R16 in Examples 1 and 2 was prepared, and thus a stable expression cell line was prepared by the same method as in Examples 1 and 2.
# Subsequently, using the same method as in Example 3, the response to a known T2R38 agonist, 6-n-propylthiouracil (1000 μM, 300 μM), was measured. As a control, a cell line (HEK293T) not incorporating any Gα-T2R38 expression vector was used.
# T2R40 = target: T1, T2R40 (Homo sapiens, UniProt P59535); assay: Response of Gα-T2R40 stable expression cell line to agonist (Fluo-8 calcium fluorescence); format: cell-based; conditions: Gα-T2R40 compared with T2R40-Gα; agonist 100 μM or 300 μM; FIG. 3
# T1 construct: expressed in transfected cells
# T1 sequence (P59535 whole entry): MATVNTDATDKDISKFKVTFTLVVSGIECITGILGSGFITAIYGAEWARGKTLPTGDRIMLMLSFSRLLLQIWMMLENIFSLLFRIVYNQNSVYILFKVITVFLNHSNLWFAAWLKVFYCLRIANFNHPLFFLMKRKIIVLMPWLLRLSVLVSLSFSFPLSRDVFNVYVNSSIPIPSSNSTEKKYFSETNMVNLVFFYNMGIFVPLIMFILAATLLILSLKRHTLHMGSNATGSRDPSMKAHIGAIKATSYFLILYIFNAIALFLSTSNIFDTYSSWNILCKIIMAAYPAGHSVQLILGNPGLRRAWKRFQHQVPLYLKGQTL
# Description: (§1) Specifically, by the same method as in Example 1 and Example 2, a Gα-T2R40 stable expression cell line (containing Gα16/Gαgust43-IRES-ssr/T2R40N5) and a Gα-T2R43 stable expression cell line (containing Gα16/Gαgust43-IRES-ssr/T2R43/V5) were prepared.
# (§2) The Gα-T2R40 stable expression cell line and the Gα-T2R43 stable expression cell line were prepared by the same method as in Example 2. […] The results are depicted in FIG. 3.
# [2] = target: T2, olfactory receptor (OR3A1) (Homo sapiens, UniProt P47881); assay: cAMP response in cells transiently expressing olfactory receptor (cAMP-GloMax luminescence); format: cell-based; conditions: FIG. 20
# T2 construct: N-terminal 21 amino acids of human rhodopsin (Rho); expressed in transfected cells; host or cells: HEK293T, transient, pcDNA vectors
# T2 sequence (P47881 2-315 limits assumed): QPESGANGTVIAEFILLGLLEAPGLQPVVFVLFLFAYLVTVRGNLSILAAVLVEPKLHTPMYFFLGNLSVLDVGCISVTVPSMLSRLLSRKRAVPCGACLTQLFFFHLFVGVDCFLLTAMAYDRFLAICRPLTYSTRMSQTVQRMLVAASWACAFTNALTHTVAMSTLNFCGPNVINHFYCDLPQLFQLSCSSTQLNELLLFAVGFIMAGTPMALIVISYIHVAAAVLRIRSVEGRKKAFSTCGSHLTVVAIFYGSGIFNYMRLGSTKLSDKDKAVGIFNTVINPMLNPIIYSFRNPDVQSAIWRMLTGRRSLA
# Description: Genes encoding Rho-OR3A1, in which N-terminal 21 amino acids (Rho) of human rhodopsin had been added to the N-terminus of OR3A1, and Gαolf were introduced together with IRES into pcDNA vectors by the same method as in Example 1, thereby preparing expression vectors, OR3A1-Gαolf and Gαolf-OR3A1. Using these expression vectors, transiently expressing HEK293T cells were prepared by the same method as in Example 4. As a control, HEK293T cells prepared by separate introduction of each gene of OR3A1 and Gαolf into pcDNA and then double-gene transfer thereof were used.
# Next, helional, a known agonist for OR3A1, was added onto the prepared cells (100 μM, 30 μM). The amount of cAMP produced in association with the response of OR3A1 20 minutes after the addition of helional was detected by luminescence measurement using a cAMP-GloMax assay kit (Promega).
# T2R43 = target: T3, T2R43 (Homo sapiens, UniProt P59537, H212R/W35S); assay: Response of Gα-T2R43 stable expression cell line to agonist (Fluo-8 calcium fluorescence); format: cell-based; conditions: Gα-T2R43 compared with T2R43-Gα; agonist 100 μM or 300 μM; FIG. 3
# T3 construct: expressed in transfected cells
# T3 sequence (P59537 1-309 W35S/H212R): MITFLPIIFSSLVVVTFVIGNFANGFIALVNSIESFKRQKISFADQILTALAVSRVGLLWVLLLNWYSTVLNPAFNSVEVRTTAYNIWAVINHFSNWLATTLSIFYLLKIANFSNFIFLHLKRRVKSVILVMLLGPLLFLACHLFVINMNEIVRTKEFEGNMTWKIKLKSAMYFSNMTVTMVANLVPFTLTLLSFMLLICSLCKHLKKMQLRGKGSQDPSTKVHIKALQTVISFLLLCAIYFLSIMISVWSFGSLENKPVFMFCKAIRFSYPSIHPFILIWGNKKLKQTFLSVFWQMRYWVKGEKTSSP
# Description: as §1, §2
# T2R16 [3] = target: T4, T2R16 (Homo sapiens, UniProt Q9NYV7); assay: Response of T2R16 transiently expressing cells to bitter substance; format: cell-based; conditions: transient Gα-T2R16 in HEK293T compared with T2R16-Gα, co-transfection and Gα stable; FIG. 4
# T4 construct: expressed in transfected cells
# T4 sequence (Q9NYV7 1-291): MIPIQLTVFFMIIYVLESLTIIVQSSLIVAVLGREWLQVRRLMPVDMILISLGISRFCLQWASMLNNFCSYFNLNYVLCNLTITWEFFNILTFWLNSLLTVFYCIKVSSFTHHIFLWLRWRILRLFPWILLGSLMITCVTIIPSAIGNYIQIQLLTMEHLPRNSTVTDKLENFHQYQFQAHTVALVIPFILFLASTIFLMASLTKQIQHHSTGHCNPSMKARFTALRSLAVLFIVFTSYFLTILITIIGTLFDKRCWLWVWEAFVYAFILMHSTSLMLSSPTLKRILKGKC
# Description: Into HEK293T seeded at 2×10^4 in a 96-well plate, 0.1 μg of each of the Gα-T2R16 and the T2R16-Gα plasmid vectors was introduced using lipofectamine (registered trademark) 3000. After 30 hours of culture, response intensity to salicin was measured using the same technique as in Example 3 (1) (maximum fluorescence intensity during 40 seconds after the addition of salicin). Note that drug resistance screening with hygromycin B as in Example 2 was not performed (transiently expressing cells).
# Furthermore, as a comparative example, the following cells were also prepared other than T2R16-Gα expressing cells, and then the response to salicin was measured:
# cells (cotransfection), prepared by simultaneous gene transfer of a total of 0.1 μg of a Gα16/Gαgust43gust expression vector and a ssr-T2R16-V5 expression vector comprising a Gα16/Gαgust43 expression gene and a ssr-T2R16-V5 expression gene, respectively, via incorporation thereof into pcDNA3.1 Hygro(+) vectors for transient expression of the genes; and
# cells (Gα stable), prepared by the gene transfer of 0.1 μg of a ssr-T2R16-V5 expression vector into a Gα16/Gαgust43 stable expression cell line (subjected in advance to drug resistance screening using hygromycin B) prepared by the same technique as in Example 2 for transient expression of the genes.
# [4] = target: T5, human bitter taste receptor (T2R16) (Homo sapiens, UniProt Q9NYV7); assay: Response of T2R16 stable expression cell line to bitter substance (Fluo-8 calcium fluorescence); format: cell-based; conditions: salicin 10, 3, 1, 0.3 or 0.1 mM, FIG. 2
# T5 construct: N-terminal 45 amino acids of rat somatostatin receptor 3 (ssr3); expressed in transfected cells
# T5 sequence (Q9NYV7 1-291): T4 sequence (Q9NYV7 1-291)
# Description: Specifically, into 1×10^6 cells of the human embryonic kidney cell line HEK293T (obtained from RIKEN) seeded in a culture vessel, 5 μg of each of the Gα-T2R16 and T2R16-Gα plasmid vectors prepared in Example 1 was introduced through the use of lipofectamine (registered trademark) 3000 (Thermo Fisher Scientific Inc.). After 48 hours of culture, drug resistance screening was performed by adding 100 μg/mL hygromycin B to the medium and then culturing for about 15 days. Cells that had acquired drug resistance were cloned by seeding these cells in each well of a 96-well plate at one cell per well. After about 10 days of culture, a stable expression cell line was obtained.
# The T2R16 stable expression cell line prepared based on the method described in Example 2 was seeded at 2×10^4 cells/well in a 96-well plate. The culture media for cells contained a green fluorescent calcium indicator Fluo-8 (registered trademark) (AAT Bioquest, Inc.), and the uptake of Fluo-8 into the cell lines was examined. Fluo-8 (registered trademark) is suitable for detection of intracellular calcium dynamics and is an indicator of GPCR activity.
# Cells incorporating Fluo-8 (registered trademark) were excited at 490 nm and the fluorescence intensity at 514 nm was measured. […] The results are depicted in FIG. 2.
# T2R16 [5] = target: T4, T2R16; assay: Response intensity before and after cryopreservation of T2R16 stable expression cell line; format: cell-based; conditions: FIG. 7
# Description: Gα-T2R16 in this example was prepared in the same manner as in the case of the Gα-T2R16 stable expression cell line in Example 2, but pEAK10 (Edge biosystem, Inc.) was used as an expression vector and “ssr/T2R16” (without V5) was inserted instead of “ssr/T2R16/V5”. Further, drug resistance screening was performed with 1 μg/mL puromycin instead of hygromycin B.
# As a comparative example, into the Gα16/Gαgust43 stable expression cell line (subjected in advance to drug resistance screening with puromycin) prepared using the same technique as in Example 2, 5 μg of ssr-T2R16 expression vector was introduced and then drug resistance screening was performed using puromycin. The thus prepared stable expression cell line (Double stable) stably expressing Gα16/Gαgust43+T2R16 was used.
# Before and after cryopreservation of the cell line, the response intensity to salicin (1 or 0.1 mM) was examined in the same manner as in Example 3. For cryopreservation, CELLBANKER (Nippon Zenyaku Kogyo Co., Ltd.) was used, and cells were stored under liquid nitrogen for 1 month. The temperature for the cryopreserved cells was brought back to normal temperature, cells were passaged at least twice, and then the response intensity after cryopreservation was measured. The results are depicted in FIG. 7.
# T2R38 subtype (bitter taste receptor), sequence (P59533 whole entry A49P/I296V): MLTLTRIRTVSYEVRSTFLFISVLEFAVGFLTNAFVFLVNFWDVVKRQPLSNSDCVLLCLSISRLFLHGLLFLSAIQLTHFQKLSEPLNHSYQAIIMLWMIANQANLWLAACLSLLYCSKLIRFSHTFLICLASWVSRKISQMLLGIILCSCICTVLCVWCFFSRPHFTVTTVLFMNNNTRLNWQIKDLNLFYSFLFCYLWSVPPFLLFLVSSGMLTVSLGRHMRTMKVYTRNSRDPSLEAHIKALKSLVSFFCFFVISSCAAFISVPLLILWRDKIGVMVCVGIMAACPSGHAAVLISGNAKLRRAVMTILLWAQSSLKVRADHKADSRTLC
structure (smiles),measurement,setting,value
CCCc1cc(=O)[nH]c(=S)[nH]1 [6-n-propylthiouracil],response to T2R38 agonist,[1]; 300 μM,exhibited
same,response to T2R38 agonist,[1]; 1000 μM,exhibited
OC(CCCN1CCCCC1)(c1ccccc1)c1ccccc1 [diphenydol],response intensity of T2R40 to the agonist,T2R40,higher response intensity
CC(C=O)Cc1ccc2c(c1)OCO2 (centres unmarked) [helional],amount of cAMP produced in association with the response of OR3A1,"[2]; HEK293T cells with Gαolf-OR3A1 expression vector, 100 μM helional, 20 minutes after addition",increase in cAMP
same,amount of cAMP produced in association with the response of OR3A1,"[2]; HEK293T cells with OR3A1-Gαolf expression vector, helional 100 μM, 30 μM, 20 minutes",no response
same,amount of cAMP produced in association with the response of OR3A1,"[2]; HEK293T cells with OR3A1 and Gαolf genes introduced separately, helional 100 μM, 30 μM, 20 minutes",no response
C=C[C@H]1C[N@@]2CC[C@H]1C[C@H]2[C@H](O)c1ccnc2ccc(OC)cc12 [quinine],response intensity of T2R43 to the agonist,T2R43,higher response intensity
OCc1ccccc1O[C@@H]1O[C@H](CO)[C@@H](O)[C@H](O)[C@H]1O [salicin],response intensity to salicin,T2R16 [3],response intensity higher
same,response intensity of T2R16 to the agonist (increase rate of maximum fluorescence intensity),[4]; HEK293T stable cell line containing the Gα-T2R16 plasmid,exhibited responses
same,response intensity of T2R16 to the agonist (increase rate of maximum fluorescence intensity),[4]; cell line containing the comparative T2R16-Gα plasmid,almost no response
same,ratio of response intensity after freezing/response intensity before freezing,"T2R16 [5]; Gα-T2R16 stable expression cell line (pEAK10), salicin 0.1 mM, 1 month under liquid nitrogen",≥ 0.8
same,ratio of response intensity after freezing/response intensity before freezing,"T2R16 [5]; Gα-T2R16 stable expression cell line (pEAK10), salicin 1 mM, 1 month under liquid nitrogen",≥ 0.8
same,ratio of response intensity after freezing/response intensity before freezing,"T2R16 [5]; comparative Double stable cell line (Gα16/Gαgust43+T2R16), salicin 0.1 mM",≤ 0.4
same,ratio of response intensity after freezing/response intensity before freezing,"T2R16 [5]; comparative Double stable cell line (Gα16/Gαgust43+T2R16), salicin 1 mM",less than 0.6
